Data on two compounds can be found in PMC514652, “A single amino acid determines preference between phospholipids and reveals length restriction for activation ofthe S1P4 receptor” (BMC Biochemistry, 2004).

Positions count from the first letter of the chain named.

A word on the EC50: it is the midpoint of the concentration-response curve.

Experiment [1] has as its target T1, S1P4 (Homo sapiens, UniProt O95977, E122Q).
T1 construct: gene S1PR4; HA-S1P4(E3.29(122)Q)-Gαi1(C351I) fusion in CHO-K1 membranes, pertussis toxin treated; with Gαi1(C351I) (fused)
T1 sequence (O95977 1-384 E122Q): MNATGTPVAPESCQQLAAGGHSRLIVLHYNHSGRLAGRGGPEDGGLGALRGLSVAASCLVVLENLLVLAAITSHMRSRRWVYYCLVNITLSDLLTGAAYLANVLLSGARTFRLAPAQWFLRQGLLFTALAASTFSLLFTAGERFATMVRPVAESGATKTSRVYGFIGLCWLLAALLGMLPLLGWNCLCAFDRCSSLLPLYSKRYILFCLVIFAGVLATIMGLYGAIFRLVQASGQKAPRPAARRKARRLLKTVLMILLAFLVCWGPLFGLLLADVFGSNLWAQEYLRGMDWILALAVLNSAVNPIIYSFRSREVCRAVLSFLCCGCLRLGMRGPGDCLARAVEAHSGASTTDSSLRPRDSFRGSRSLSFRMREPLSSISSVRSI
The experiment can be described thus: […]GTPγS binding assay at a single […] concentration (weak agonist). It is filed as cell-based. The conditions noted are these: read-out: % stimulation over basal at 10 μM. (In general: GTPγS is a poorly hydrolysed GTP analogue; its binding reports G protein activation.)

Experiment [2] addresses T2, S1P4 (Homo sapiens, UniProt O95977).
T2 construct: gene S1PR4
T2 sequence (O95977 1-384): T1 sequence (O95977 1-384 E122Q) with Q122E
Description: […]GTPγS binding assay, CHO-K1 membranes. The format is biochemical.

As to `CCCCCCCCCCCCCCCC(=O)OC[C@@H](O)COP(=O)(O)O` [16:0 LPA], the activation at 10 µM in experiment [1] was around 19%.

In experiment [2], `CCCCCCCCCCCCC/C=C/[C@@H](O)[C@@H](N)COP(=O)(O)O` [S1P, Sphingosine-1-phosphate] displayed an EC50 of 355 ± 155 nM.
